Earlier results, collected in patent US11208380B2, “Process for the purification of caprolactam from a solution of crude caprolactam without organic solvent extraction” (AquafilSLO d.o.o., priority 2017, dated 2021).

| SMILES | LD50, rat, oral administration |
| --- | --- |
| ClC=C(Cl)Cl [Trichloroethylene] | 5400 mg/kg |
| c1ccccc1 [Benzene] | 930 mg/kg |
